These results are taken from US10336762B2 (priority 2017, dated 2019).

Each structure is given as a SMILES string.

For one assay, the system named is TNFα. The assay is described as follows: cells. In kind it is cell-based, human. The note with it: Homo sapiens, Monocyte, LPS-stimulated human monocytes, TNFα content; read-out: EC50 TNF.
The target in a further assay is IRAK4 enzyme (Homo sapiens (Human), UniProt Q9NWZ3). The assay is described as follows: biochemical. The note with it: IRAK4 enzyme, TR-FRET, 500 μM ATP. In kind it is biochemical.
Sequence of IRAK4 enzyme (Q9NWZ3 whole entry): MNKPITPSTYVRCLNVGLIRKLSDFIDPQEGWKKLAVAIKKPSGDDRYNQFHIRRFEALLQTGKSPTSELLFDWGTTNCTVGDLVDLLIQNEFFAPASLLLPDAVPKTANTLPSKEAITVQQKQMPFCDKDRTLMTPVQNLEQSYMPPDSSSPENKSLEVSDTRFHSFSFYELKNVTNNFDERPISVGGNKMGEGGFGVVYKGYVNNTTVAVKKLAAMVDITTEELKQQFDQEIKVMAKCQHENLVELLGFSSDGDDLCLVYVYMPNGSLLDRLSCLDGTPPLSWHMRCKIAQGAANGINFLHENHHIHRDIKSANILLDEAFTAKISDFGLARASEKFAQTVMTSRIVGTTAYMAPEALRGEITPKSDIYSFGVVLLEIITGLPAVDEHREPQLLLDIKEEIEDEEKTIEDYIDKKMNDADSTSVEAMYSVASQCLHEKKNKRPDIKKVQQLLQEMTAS

For orientation: EC50 means the midpoint of the concentration-response curve. By IC50 is commonly meant the concentration needed to halve the response being measured. In the case of `CC(C)(O)[C@H](F)CNC(=O)c1cnc(-c2ccc3cc(C#N)cnn23)cc1Nc1cnn(C2CNC2)c1` [Example 232, (R)-4-((1-(azetidin-3-yl)-1H-pyrazol-4-yl)amino)-6-(3-cyanopyrrolo[1,2-b]pyridazin-7-yl)-N-(2-fluoro-3-hydroxy-3-methylbutyl)nicotinamide], in the assay with TNFα, the EC50 was 425 nM. The IC50 on IRAK4 enzyme amounted to 1 nM.

Turning to `Cc1cncc(Nc2cc(-c3ccc4cc(C#N)cnn34)ncc2C(=O)NC[C@@H](F)C(C)(C)O)c1` [Example 233, (R)-6-(3-cyanopyrrolo[1,2-b]pyridazin-7-yl)-N-(2-fluoro-3-hydroxy-3-methylbutyl)-4-((5-methylpyridin-3-yl)amino)nicotinamide], the EC50 with TNFα was determined as 170 nM. For the same compound, the IC50 against IRAK4 enzyme came out at 1 nM.

For `CC(C)(O)[C@H](F)CNC(=O)c1cnc(-c2ccc3cc(C#N)cnn23)cc1Nc1ccc(-c2c[nH]cn2)cc1` [Example 234, (R)-4-((4-(1H-imidazol-4-yl)phenyl)amino)-6-(3-cyanopyrrolo[1,2-b]pyridazin-7-yl)-N-(2-fluoro-3-hydroxy-3-methylbutyl) nicotinamide], the EC50 in the assay on TNFα amounted to 33 nM. The compound further had an IC50 at IRAK4 enzyme of less than 1 nM.

Regarding `COC(=O)N1CCC(n2cc(Nc3cc(-c4ccc5cc(C#N)cnn45)ncc3C(=O)NC[C@@H](F)C(C)(C)O)cn2)CC1` [Example 235, (R)-methyl 4-(4-((2-(3-cyanopyrrolo[1,2-b]pyridazin-7-yl)-5-((2-fluoro-3-hydroxy-3-methylbutyl)carbamoyl)pyridin-4-yl)amino)-1H-pyrazol-1-yl)piperidine-1-carboxylate], in the assay on TNFα, the EC50 was 166 nM. On IRAK4 enzyme, this compound returned an IC50 of 2 nM.

On to `CC(C)(O)[C@H](F)CNC(=O)c1cnc(-c2ccc3cc(C#N)cnn23)cc1Nc1cnn(C2CCNCC2)c1` [Example 236, (R)-6-(3-cyanopyrrolo[1,2-b]pyridazin-7-yl)-N-(2-fluoro-3-hydroxy-3-methylbutyl)-4-((1-(piperidin-4-yl)-1H-pyrazol-4-yl)amino) nicotinamide], for which the EC50 in the assay on TNFα came to 379 nM. Moreover, on IRAK4 enzyme, the IC50 worked out at 1 nM.

For the compound `CC(C)(O)[C@H](F)CNC(=O)c1cnc(-c2ccc3cc(C#N)cnn23)cc1Nc1cnn([C@H]2CCOC2)c1` [Example 237, 6-(3-cyanopyrrolo[1,2-b]pyridazin-7-yl)-N-((R)-2-fluoro-3-hydroxy-3-methylbutyl)-4-((1-((S)-tetrahydrofuran-3-yl)-1H-pyrazol-4-yl)amino) nicotinamide], the EC50 in the assay with TNFα was found to be 23 nM. At IRAK4 enzyme, this compound came in with an IC50 of 1 nM.

In the case of `CC(C)(O)[C@H](F)CNC(=O)c1cnc(-c2ccc3cc(C#N)cnn23)cc1N[C@@H]1CC2CN(C(N)=O)C[C@H]2C1` (stereo partly drawn) [Example 238, (3aR,5s,6aS)-5-((2-(3-cyanopyrrolo[1,2-b]pyridazin-7-yl)-5-(((R)-2-fluoro-3-hydroxy-3-methylbutyl)carbamoyl)pyridin-4-yl)amino)hexa-hydrocyclopenta[c]pyrrole-2(1H)-carboxamide], the EC50 with TNFα is 225 nM. This compound also showed an IC50 on IRAK4 enzyme of less than 1 nM.

For the compound `CC(C)(O)[C@H](F)CNC(=O)c1cnc(-c2ccc3cc(C#N)cnn23)cc1Nc1cnn([C@@H]2CCOC2)c1` [Example 239, 6-(3-cyanopyrrolo[1,2-b]pyridazin-7-yl)-N-((R)-2-fluoro-3-hydroxy-3-methylbutyl)-4-((1-((R)-tetrahydrofuran-3-yl)-1H-pyrazol-4-yl)amino) nicotinamide], the EC50 with TNFα amounted to 24 nM. At IRAK4 enzyme, this compound yielded an IC50 of less than 1 nM.

With `CC(C)(O)[C@H](F)CNC(=O)c1cnc(-c2ccc3cc(C#N)cnn23)cc1N[C@@H]1CNCCC1(F)F` [Example 240, 6-(3-cyanopyrrolo[1,2-b]pyridazin-7-yl)-4-(((R)-4,4-difluoropiperidin-3-yl)amino)-N-((R)-2-fluoro-3-hydroxy-3-methylbutyl) nicotinamide], in the assay with TNFα, the EC50 worked out at 27 nM. The compound further had an IC50 against IRAK4 enzyme of 1 nM.

For the compound `CC(=O)NCc1ccc(Nc2cc(-c3ccc4cc(C#N)cnn34)ncc2C(=O)NC[C@@H](F)C(C)(C)O)cc1` [Example 241, (R)-4-((4-(acetamidomethyl)phenyl)amino)-6-(3-cyanopyrrolo[1,2-b]pyridazin-7-yl)-N-(2-fluoro-3-hydroxy-3-methylbutyl)nicotinamide], the 50% effective concentration (EC50) in the assay on TNFα was 16 nM. The compound further came in with an IC50 against IRAK4 enzyme of less than 1 nM.

On to `COC(=O)N1CCC(Nc2cc(-c3ccc4cc(C#N)cnn34)ncc2C(=O)NC[C@@H](F)C(C)(C)O)CC1` [Example 242, (R)-methyl 4-((2-(3-cyano-pyrrolo[1,2-b]pyridazin-7-yl)-5-((2-fluoro-3-hydroxy-3-methylbutyl)carbamoyl)pyridin-4-yl)amino)piperidine-1-carboxylate], for which the concentration giving a half-maximal response (EC50) in the assay on TNFα is 191 nM. Further, 2 nM corresponded to half-maximal inhibition on IRAK4 enzyme (IC50).

For `CN(C)C(=O)N1CCC(Nc2cc(-c3ccc4cc(C#N)cnn34)ncc2C(=O)NC[C@@H](F)C(C)(C)O)CC1` [Example 243, (R)-6-(3-cyanopyrrolo[1,2-b]pyridazin-7-yl)-4-((1-(dimethylcarbamoyl)piperidin-4-yl)amino)-N-(2-fluoro-3-hydroxy-3-methylbutyl)nicotinamide], in the assay with TNFα, the EC50 was determined as 218 nM. Further, at IRAK4 enzyme, 2 nM corresponded to half-maximal inhibition (IC50).

Consider `CN(C)S(=O)(=O)N1CCC(Nc2cc(-c3ccc4cc(C#N)cnn34)ncc2C(=O)NC[C@@H](F)C(C)(C)O)CC1` [Example 244, (R)-6-(3-cyanopyrrolo[1,2-b]pyridazin-7-yl)-4-((1-(N,N-dimethylsulfamoyl)piperidin-4-yl)amino)-N-(2-fluoro-3-hydroxy-3-methylbutyl) nicotinamide], for which the EC50 with TNFα was 102 nM. Half-maximal inhibition against IRAK4 enzyme (IC50) required 1 nM.

On to `CN1CC2C[C@@H](Nc3cc(-c4ccc5cc(C#N)cnn45)ncc3C(=O)NC[C@@H](F)C(C)(C)O)C[C@@H]2C1` (stereo partly drawn) [Example 245, 6-(3-cyanopyrrolo[1,2-b]pyridazin-7-yl)-N-((R)-2-fluoro-3-hydroxy-3-methylbutyl)-4-(((3aR,5s,6aS)-2-methyloctahydrocyclopenta[c]pyrrol-5-yl)amino)nicotinamide], for which the EC50 in the assay on TNFα is 92 nM. The compound also had an IC50 on IRAK4 enzyme of 2 nM.

Regarding `CC(=O)N1C[C@H]2C[C@@H](Nc3cc(-c4ccc5cc(C#N)cnn45)ncc3C(=O)NC[C@@H](F)C(C)(C)O)C[C@H]2C1` [Example 246, 4-(((3aR,5r,6aS)-2-acetyl-octahydrocyclopenta[c]pyrrol-5-yl)amino)-6-(3-cyanopyrrolo[1,2-b]pyridazin-7-yl)-N-((R)-2-fluoro-3-hydroxy-3-methylbutyl)nicotinamide], the EC50 in the assay on TNFα came out at 637 nM. This compound also came in with an IC50 at IRAK4 enzyme of 17 nM.

As for `CC(C)(O)[C@H](F)CNC(=O)c1cnc(-c2ccc3cc(C#N)cnn23)cc1N[C@@H]1C[C@@H]2CN(S(C)(=O)=O)C[C@@H]2C1` [Example 247, 6-(3-cyanopyrrolo[1,2-b]pyridazin-7-yl)-N-((R)-2-fluoro-3-hydroxy-3-methylbutyl)-4-(((3aR,5r,6aS)-2-(methylsulfonyl)octahydro-cyclopenta[c]pyrrol-5-yl)amino)nicotinamide], in the assay with TNFα, the EC50 was 262 nM. This compound also gave an IC50 at IRAK4 enzyme of 6 nM.

As for `CC(C)(O)[C@H](F)CNC(=O)c1cnc(-c2ccc3cc(C#N)cnn23)cc1N[C@H]1C[C@H]2CNC[C@H]2C1` [Example 248, 6-(3-cyanopyrrolo[1,2-b]pyridazin-7-yl)-N-((R)-2-fluoro-3-hydroxy-3-methyl-butyl)-4-(((3aR,5r,6aS)-octahydrocyclopenta[c]pyrrol-5-yl)amino) nicotinamide], in the assay on TNFα, the EC50 turned out to be 545 nM. Also, the midpoint of inhibition against IRAK4 enzyme, the IC50, lay at 3 nM.
